Measurements as given in US20190185479A1, “BICYCLIC NITROGENATED HETEROCYCLIC COMPOUND” (MITSUBISHI TANABE PHARMA CORPORATION, priority 2016, published 2019).

Experiments:
Format in all cases: biochemical
[1] = molecular target: T1, Human PDE7B (hPDE7B) (Homo sapiens, UniProt Q9NP56); experiment: Measurement of PDE7 inhibitory activity (Experimental Example 1; residual cAMP, LANCE Ultra cAMP TR-FRET); conditions: cAMP 3 nmol/L, room temperature 60 minutes
T1 construct: made in house; host or cells: COS-7 cells
Procedure, shortened: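 hPDE7B from transfected COS-7 cells reacted with 3 nmol/L cAMP (final) and compound (2% DMSO) in 50 mmol/L Tris-HCl pH 7.5, 1 mmol/L MgCl2, 0.1% BSA, 0.5 mmol/L DTT, 60 min at room temperature. Reaction stopped with IBMX; residual cAMP measured by TR-FRET. Inhibition scaled between no-compound and no-enzyme controls.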

[2] = molecular target: T2, hPDE4D (Homo sapiens, UniProt Q08499); experiment: PDE4 inhibition assay (IC50), Experimental Example 3; conditions: for IC50: hPDE4D, read-out: PDE inhibition assay IC50, PDE4; for inhibition at 10 µM: at 10 μmol/L; for inhibition at 0.1 µM: at 0.1 μmol/L
T2 construct: purchased SB Drug Discovery
Description: (§1) PDE7 inhibitory assay was carried out by reacting the mixture of a compound, hPDE7B, and cAMP, and measuring the residual cAMP by a detection method using LANCE (registered trademark) Ultra cAMP Detection Kit (ParkinElmer). The compound was dissolved in DMSO, and diluted so that the concentration would become 50 times of the final concentration. The hPDE7B and cAMP were diluted with an assay buffer (50 mmol/L Tris-HCl, 1 mmol/L MgCl2, 0.1% BSA, 0.5 mmol/L DTT, pH7.5) so that the hPDE7B would have an appropriate enzyme activity and the concentration of cAMP would become 6 nmol/L. To a 96 well plate were added the compound (2 μL) (DMSO final concentration: 2%), hPDE7B (48 μL), and cAMP (50 μL) (concentration at the reaction: 3 nmol/L), and the resulting mixture was reacted at room temperature for 60 minutes. The reaction solution (20 μL) was subjected to a TR-FRET method according to the protocol specified by the kit to measure the concentration of the residual cAMP. In the assay, to a tracer solution specified by the kit was added 0.5 mmol/L of 3-isobutyl-1-methylxanthine (IBMX, nonselective PDE inhibitor) in order to stop the PDE enzyme reaction after the completion of reaction until the measurement.
(§2) The prediction of PDE7 selectivity was evaluated by comparing each IC50 value of a compound against PDE4, 8, and 10 with the IC50 value of said compound against PDE7B.
(§3) hPDE4D, hPDE8B, and hPDE10A were prepared by the same method as [Method for preparing samples 2].
(§4) PDE4, 8, and 10 inhibitory assays were carried out by the same method as [Assay procedure 1].
(§5) The reaction without a compound wad defined as “0% inhibition”, the reaction without each PDE was defined as “100% inhibition”, and the calculation of IC50 value was carried out by the same method as <Method for data calculation 1>.

[3] = molecular target: T3, hPDE8B (Homo sapiens, UniProt O95263); experiment: PDE8 inhibition assay (IC50), Experimental Example 3; conditions: for IC50: hPDE8B, read-out: PDE inhibition assay IC50, PDE8; for inhibition at 0.1 µM: at 0.1 μmol/L; for inhibition at 0.1 µM / inhibition at 1 µM / inhibition at 10 µM: read-out: inhibition rate (%) at prescribed concentration, PDE8; for inhibition at 10 µM: at 10 μmol/L
T3 construct: purchased SB Drug Discovery
Procedure, shortened: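 Recombinant human enzymes incubated with compound and 3 nmol/L cAMP (final) in Tris-HCl pH 7.5 buffer with MgCl2, BSA, DTT, 2% DMSO final, 60 min at room temperature. Residual cAMP measured by TR-FRET (LANCE Ultra), reaction stopped with 0.5 mmol/L IBMX. IC50 from inhibition relative to no-compound (0%) and no-enzyme (100%) controls.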

[4] = molecular target: hPDE10A (Homo sapiens, UniProt Q9Y233); experiment: PDE10 inhibition assay (IC50), Experimental Example 3; conditions: for IC50: hPDE10A, read-out: PDE inhibition assay IC50, PDE10; for inhibition at 10 µM / inhibition at 100 µM: read-out: inhibition rate (%) at prescribed concentration, PDE10; for inhibition at 100 µM: at 100 μmol/L
Description: as §1, §2, §3, §4, §5

[5] = read-out: inhibition rate (%) at prescribed concentration, PDE4

T3 sequence (O95263 whole entry): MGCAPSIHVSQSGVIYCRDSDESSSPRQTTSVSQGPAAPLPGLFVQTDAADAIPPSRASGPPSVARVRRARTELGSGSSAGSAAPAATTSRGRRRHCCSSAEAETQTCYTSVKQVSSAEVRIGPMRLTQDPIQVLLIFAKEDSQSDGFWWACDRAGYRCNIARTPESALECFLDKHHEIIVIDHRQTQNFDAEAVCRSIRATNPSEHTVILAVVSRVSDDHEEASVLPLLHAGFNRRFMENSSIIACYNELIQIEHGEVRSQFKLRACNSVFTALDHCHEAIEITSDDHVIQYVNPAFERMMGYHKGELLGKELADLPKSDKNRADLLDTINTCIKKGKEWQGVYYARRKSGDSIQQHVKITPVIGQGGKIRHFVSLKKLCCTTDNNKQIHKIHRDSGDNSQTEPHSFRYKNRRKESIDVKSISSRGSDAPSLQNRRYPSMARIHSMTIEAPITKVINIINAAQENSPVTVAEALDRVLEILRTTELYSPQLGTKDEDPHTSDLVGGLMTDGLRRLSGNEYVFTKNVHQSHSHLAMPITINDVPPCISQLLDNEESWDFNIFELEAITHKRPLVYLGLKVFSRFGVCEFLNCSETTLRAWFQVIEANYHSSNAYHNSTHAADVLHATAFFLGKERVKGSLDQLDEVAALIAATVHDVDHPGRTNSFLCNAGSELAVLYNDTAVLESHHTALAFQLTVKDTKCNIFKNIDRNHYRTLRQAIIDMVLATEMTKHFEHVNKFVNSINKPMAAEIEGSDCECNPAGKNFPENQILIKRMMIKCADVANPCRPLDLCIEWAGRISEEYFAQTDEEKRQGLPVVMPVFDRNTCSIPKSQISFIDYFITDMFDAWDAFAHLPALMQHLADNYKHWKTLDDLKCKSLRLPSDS
T1 sequence (Q9NP56 whole entry): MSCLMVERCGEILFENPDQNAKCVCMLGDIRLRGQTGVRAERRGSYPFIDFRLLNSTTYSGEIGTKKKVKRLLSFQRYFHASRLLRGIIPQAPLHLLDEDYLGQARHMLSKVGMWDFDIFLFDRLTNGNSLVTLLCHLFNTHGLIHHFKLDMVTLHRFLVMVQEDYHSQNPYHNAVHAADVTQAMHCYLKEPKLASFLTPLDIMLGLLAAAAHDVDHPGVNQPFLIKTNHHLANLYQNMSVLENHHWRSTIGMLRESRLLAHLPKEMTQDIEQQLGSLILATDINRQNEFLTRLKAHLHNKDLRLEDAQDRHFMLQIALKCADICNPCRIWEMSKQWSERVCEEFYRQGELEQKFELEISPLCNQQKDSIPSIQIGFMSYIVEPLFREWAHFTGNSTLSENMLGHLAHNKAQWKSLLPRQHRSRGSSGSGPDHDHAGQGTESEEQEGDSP
T2 sequence (Q08499 whole entry): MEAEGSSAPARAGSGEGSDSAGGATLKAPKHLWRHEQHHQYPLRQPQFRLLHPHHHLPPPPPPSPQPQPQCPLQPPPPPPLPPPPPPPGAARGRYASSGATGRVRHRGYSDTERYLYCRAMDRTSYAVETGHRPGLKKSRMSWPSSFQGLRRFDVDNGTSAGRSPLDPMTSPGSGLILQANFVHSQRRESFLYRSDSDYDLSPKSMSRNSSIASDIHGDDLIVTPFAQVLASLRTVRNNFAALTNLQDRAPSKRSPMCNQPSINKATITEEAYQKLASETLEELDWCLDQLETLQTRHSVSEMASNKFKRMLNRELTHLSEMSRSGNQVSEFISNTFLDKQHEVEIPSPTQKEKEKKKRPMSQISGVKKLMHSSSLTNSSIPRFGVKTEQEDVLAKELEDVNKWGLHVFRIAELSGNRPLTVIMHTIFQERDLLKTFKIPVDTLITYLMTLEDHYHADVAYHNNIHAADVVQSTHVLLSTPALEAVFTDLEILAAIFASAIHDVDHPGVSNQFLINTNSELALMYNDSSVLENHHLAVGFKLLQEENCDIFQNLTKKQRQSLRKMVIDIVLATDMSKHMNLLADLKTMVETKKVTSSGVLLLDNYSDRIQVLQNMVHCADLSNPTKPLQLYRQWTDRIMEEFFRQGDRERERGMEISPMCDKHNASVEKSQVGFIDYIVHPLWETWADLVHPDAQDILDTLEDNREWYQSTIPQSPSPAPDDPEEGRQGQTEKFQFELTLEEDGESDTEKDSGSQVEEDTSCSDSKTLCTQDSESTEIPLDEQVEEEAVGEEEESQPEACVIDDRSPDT
hPDE10A, sequence (Q9Y233 290-1055 limits assumed): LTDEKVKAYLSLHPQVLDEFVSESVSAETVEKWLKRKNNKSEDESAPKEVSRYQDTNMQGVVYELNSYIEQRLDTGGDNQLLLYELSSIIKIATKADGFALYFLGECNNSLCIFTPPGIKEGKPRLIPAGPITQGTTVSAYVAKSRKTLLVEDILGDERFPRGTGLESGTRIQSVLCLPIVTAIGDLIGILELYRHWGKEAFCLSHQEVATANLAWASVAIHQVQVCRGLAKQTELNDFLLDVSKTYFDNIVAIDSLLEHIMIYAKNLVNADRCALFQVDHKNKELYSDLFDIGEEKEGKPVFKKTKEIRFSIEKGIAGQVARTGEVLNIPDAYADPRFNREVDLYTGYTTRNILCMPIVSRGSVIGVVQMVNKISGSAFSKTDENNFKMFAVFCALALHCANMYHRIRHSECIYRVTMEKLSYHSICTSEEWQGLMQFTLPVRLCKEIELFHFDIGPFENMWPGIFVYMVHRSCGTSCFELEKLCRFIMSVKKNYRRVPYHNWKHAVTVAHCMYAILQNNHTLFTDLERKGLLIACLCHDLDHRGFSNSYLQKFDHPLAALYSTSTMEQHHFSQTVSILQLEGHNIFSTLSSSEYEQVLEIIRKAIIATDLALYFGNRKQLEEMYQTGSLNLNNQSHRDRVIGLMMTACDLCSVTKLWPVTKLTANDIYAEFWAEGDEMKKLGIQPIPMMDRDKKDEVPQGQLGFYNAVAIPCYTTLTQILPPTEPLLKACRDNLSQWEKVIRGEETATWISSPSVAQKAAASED

Row | Structure (SMILES) | IC50 [1] [nM] | IC50 [2] [µM] | IC50 [3] [µM] | IC50 [4] [µM] | also measured
1 | C[C@H]1CC[C@H](c2nnc3c(N)nccn32)CC1 [Example 149, 3-(trans-4-methylcyclohexyl) [1,2,4]triazolo[4,3-a]pyrazin-8-amine] | 40 | 2.2 | 1.66 |  | inhibition at 10 µM ([4]; at 10 μmol/L): 46%
2 | CC1(C)CCCN(c2nnc3c(N)nccn23)C1 [Example 26, 3-(3,3-dimethylpiperidin-1-yl) [1,2,4]triazolo[4,3-a]pyrazin-8-amine] | 20 | 4.59 | 7.66 | 21.1 | 
3 | Nc1nccn2c(C3CCc4[nH]ncc4C3)nnc12 (centres unmarked) [Example 159] | 60 | 4.77 | 3.51 | 10.6 | 
4 | CC1(C)CCC(n2nnc3c(N)ncnc32)CC1 [Example 101, 3-(4,4-dimethylcyclohexyl)-3H-[1,2,3]triazolo[4,5-d]pyrimidin-7-amine] | 20 | 0.64 |  | 5.84 | inhibition at 0.1 µM [3]: 69%
5 | Nc1ncnc2c1nnn2[C@@H]1CCCOC1 [Example 90] | 120 | 3.7 |  | 19 | inhibition at 1 µM ([3]; at 1 μmol/L): 59%
6 | Nc1nccn2c([C@H]3CCCC(F)(F)C3)nnc12 [Example 212, 3-[(1S)-3,3-difluorocyclohexyl][1,2,4]triazolo[4,3-a]pyrazin-8-amine] | 40 | 15.9 | 6.07 | 15.6 | 
7 | Nc1nccn2c(C3CC4(CC4)C3)nnc12 [Example 20] | 80 |  | 1.58 |  | inhibition at 10 µM [2, 5]: 40%; inhibition at 10 µM ([4]; at 10 μmol/L): 22%
8 | Nc1nccn2c(C3CCCCC3)ncc12 [Example 180, 3-cyclohexylimidazo[1,5-a]pyrazin-8-amine] | 390 | 7.8 |  |  | inhibition at 10 µM [3]: 36%; inhibition at 10 µM ([4]; at 10 μmol/L): 41%
9 | Nc1nccn2c(C3CCC4CC4C3)nnc12 (single isomer, unassigned) [Example 221, 3-(bicyclo[4.1.0]hept-3-yl) [1,2,4]triazolo[4,3-a]pyrazin-8-amine] | 60 |  |  | 4.8 | inhibition at 0.1 µM [2, 5]: 55%; inhibition at 0.1 µM [3]: 69%
10 | Nc1cccn2c(C3CCCCC3)nnc12 [Example 186, 3-cyclohexyl[1,2,4]triazolo[4,3-a]pyridin-8-amine] | 460 |  |  |  | inhibition at 10 µM [2, 5]: -5%; inhibition at 10 µM [3]: -1%; inhibition at 10 µM ([4]; at 10 μmol/L): 7%
11 | Nc1nccn2c(C3(F)CCCCC3)nnc12 [Example 142, 3-(1-fluorocyclohexyl) [1,2,4]triazolo[4,3-a]pyrazin-8-amine] | 50 | 5.72 |  |  | inhibition at 10 µM [3]: 49%; inhibition at 10 µM ([4]; at 10 μmol/L): 48%
12 | CC(C)(C)OC(=O)N1CCC[C@H](c2nnc3c(N)nccn23)C1 [Example 167] | 60 |  |  | 3.7 | inhibition at 0.1 µM [2, 5]: 66%; inhibition at 0.1 µM [3]: 98%
13 | Nc1ncnc2c1cnn2C1CCCCC1 [Example 181] | 340 |  |  |  | inhibition at 10 µM [2, 5]: 21%; inhibition at 10 µM [3]: 24%; inhibition at 10 µM ([4]; at 10 μmol/L): 49%
14 | C[C@H]1CC[C@@H](n2nnc3c(N)ncnc32)CC1 [Example 99, 3-(cis-4-methylcyclohexyl)-3H-[1,2,3]triazolo[4,5-d]pyrimidin-7-amine] | 20 | 1.6 | 0.12 |  | inhibition at 10 µM ([4]; at 10 μmol/L): 38%
15 | C[C@H]1C[C@H](n2nnc3c(N)ncnc32)CC(C)(C)C1 (racemic) [Example 109, 3-(trans-3,3,5-trimethylcyclohexyl)-3H-[1,2,3]triazolo[4,5-d]pyrimidin-7-amine] | 40 | 99.2 | 12.9 |  | inhibition at 100 µM [4]: 24%
16 | Nc1ncnn2c(C3CCCC(C(F)(F)F)C3)nnc12 (single isomer, unassigned) [Example 75, 3-[cis-3-(trifluoromethyl)cyclohexyl][1,2,4]triazolo[3,4-f][1,2,4]triazin-8-amine] | 53 | 27.1 | 4.33 |  | inhibition at 100 µM [4]: 44%
17 | CC1CCCC(n2nnc3c(N)ncnc32)C1 (single isomer, unassigned) [Example 199, 3-(trans-3-methylcyclohexyl)-3H-[1,2,3]triazolo[4,5-d]pyrimidin-7-amine] | 30 | 3.84 | 6.87 |  | inhibition rate (%) at prescribed concentration, PDE10 ([4]; at 10 μmol/L): 29% at 10

Compounds with a lower IC50 [1], results first:

Row | IC50 [1] [nM] | IC50 [2] [µM] | IC50 [3] [µM] | IC50 [4] [µM] | Structure (SMILES) | also measured
18 | < 10 | 3 | 1.7 | 5.2 | CCc1cnc(N)c2nnc(N3CCCC(C)(C)C3)n12 [Example 42, 3-(3,3-dimethylpiperidin-1-yl)-5-ethyl[1,2,4]triazolo[4,3-a]pyrazin-8-amine] | 
19 | 10 | 3.6 | 4.2 | 5.2 | CC1CC(C)CN(c2nnc3c(N)nccn23)C1 (single isomer, unassigned) [Example 226, 3-[trans-3,5-dimethylpiperidin-1-yl][1,2,4]triazolo[4,3-a]pyrazin-8-amine] | 
20 | < 10 | 1.88 | 1.51 | 5.57 | CC1(C)CCCN(c2nnc3c(N)ncc(Cl)n23)C1 [Example 248, 5-chloro-3-(3,3-dimethylpiperidin-1-yl) [1,2,4]triazolo[4,3-a]pyrazin-8-amine] | 
21 | < 10 | 1.6 |  | 52.6 | Nc1ncnn2c(C3CCCC(C(F)(F)F)C3)nnc12 (single isomer, unassigned) [Example 244, 3-[cis-3-(trifluoromethyl)cyclohexyl][1,2,4]triazolo[3,4-f][1,2,4]triazin-8-amine] | inhibition at 1 µM ([3]; at 1 μmol/L): 73%
22 | < 10 | 14.9 | 19.5 | 1.9 | CC1CCC(F)(F)CC1c1nnc2c(N)nccn12 (single isomer, unassigned) [Example 175, 3-(cis-5,5-difluoro-2-methylcyclohexyl) [1,2,4]triazolo[4,3-a]pyrazin-8-amine] | 
23 | < 10 |  |  | 2.86 | CC1(C)CCCC(c2nnc3c(N)ncnn23)C1 (single isomer, unassigned) [Example 242, 3-(3,3-dimethylcyclohexyl) [1,2,4]triazolo[3,4-f][1,2,4]triazin-8-amine] | inhibition at 1 µM ([2]; at 1 μmol/L, read-out: inhibition rate (%) at prescribed concentration, PDE4): 53%; inhibition at 1 µM ([3]; at 1 μmol/L): 84%
24 | < 10 | 1.8 |  | 7.4 | CC1(C)CCCN(c2nnc3c(N)ncc(C(F)(F)F)n23)C1 [Example 252, 3-(3,3-dimethylpiperidin-1-yl)-5-(trifluoromethyl) [1,2,4]triazolo[4,3-a]pyrazin-8-amine] | inhibition at 1 µM ([3]; at 1 μmol/L): 53%
25 | 10 | 1.49 |  | 8.91 | CC1CCCC(c2nnc3c(N)ncnn23)C1 (single isomer, unassigned) [Example 72, 3-(cis-3-methylcyclohexyl) [1,2,4]triazolo[3,4-f][1,2,4]triazin-8-amine] | inhibition rate (%) at prescribed concentration, PDE8 ([3]; at 1 μmol/L): 62% at 1
26 | 10 | 3.6 | 2.1 | 4.8 | CC1CCN(c2nnc3c(N)nccn23)CC1C (single isomer, unassigned) [Example 231, 3-(3,4-dimethylpiperidin-1-yl) [1,2,4]triazolo[4,3-a]pyrazin-8-amine] | 
